Key:
[1] = molecular target: T1, MATE2-K (Homo sapiens, UniProt Q86VL8); test: in vitro
T1 sequence (Q86VL8 whole entry): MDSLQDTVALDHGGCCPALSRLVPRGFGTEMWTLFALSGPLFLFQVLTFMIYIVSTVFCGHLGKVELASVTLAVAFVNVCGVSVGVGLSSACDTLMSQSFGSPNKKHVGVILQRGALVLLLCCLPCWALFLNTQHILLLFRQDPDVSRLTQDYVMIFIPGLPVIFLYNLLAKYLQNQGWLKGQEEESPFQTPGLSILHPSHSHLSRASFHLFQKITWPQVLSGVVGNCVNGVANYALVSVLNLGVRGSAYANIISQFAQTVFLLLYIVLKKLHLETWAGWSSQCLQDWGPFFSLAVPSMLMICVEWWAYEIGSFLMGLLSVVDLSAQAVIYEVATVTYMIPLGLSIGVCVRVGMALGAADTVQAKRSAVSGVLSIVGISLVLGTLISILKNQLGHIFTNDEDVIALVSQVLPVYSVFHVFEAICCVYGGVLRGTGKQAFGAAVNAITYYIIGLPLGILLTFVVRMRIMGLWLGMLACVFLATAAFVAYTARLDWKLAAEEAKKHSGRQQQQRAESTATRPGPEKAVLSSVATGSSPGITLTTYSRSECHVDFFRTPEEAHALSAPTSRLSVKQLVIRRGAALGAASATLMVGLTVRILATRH

[2] = molecular target: T2, MATE1 (Homo sapiens, UniProt Q96FL8); test: in vitro
T2 sequence (Q96FL8 whole entry): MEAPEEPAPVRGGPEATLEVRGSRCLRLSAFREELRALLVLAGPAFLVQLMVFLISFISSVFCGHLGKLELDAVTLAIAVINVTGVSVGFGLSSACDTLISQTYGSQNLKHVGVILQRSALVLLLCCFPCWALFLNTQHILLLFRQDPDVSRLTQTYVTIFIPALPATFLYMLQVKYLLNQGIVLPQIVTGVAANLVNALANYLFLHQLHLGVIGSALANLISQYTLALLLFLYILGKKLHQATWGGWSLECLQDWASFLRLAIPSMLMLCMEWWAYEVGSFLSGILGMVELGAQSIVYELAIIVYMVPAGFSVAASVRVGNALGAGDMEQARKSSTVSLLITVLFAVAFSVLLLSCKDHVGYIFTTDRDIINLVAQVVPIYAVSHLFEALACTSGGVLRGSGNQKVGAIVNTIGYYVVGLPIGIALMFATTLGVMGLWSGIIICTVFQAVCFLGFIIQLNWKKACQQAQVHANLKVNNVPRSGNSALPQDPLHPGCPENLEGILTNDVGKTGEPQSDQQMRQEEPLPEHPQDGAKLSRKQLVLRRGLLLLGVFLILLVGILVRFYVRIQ

[3] = HEK293 cells expressing MATE2-K

Compound	uptake ratio at 1 min, 2.5 µM [1, 3]	uptake ratio at 1 min, 2.5 µM ([2]; HEK293 cells expressing MATE1)	uptake ratio at 1 min, 2.5 µM ([1]; hek293)	uptake ratio at 1 min, 2.5 µM ([2]; hek293)
NCCCC(=O)O [GAMMA-AMINOBUTYRIC ACID]	< 2	< 2	–	–
COc1cc2c(cc1OC)-c1c(C)c3ccc(OC)c(OC)c3c[n+]1CC2 [DEHYDROCORYDALINE]	> 2	> 2	–	–
CC(C)(C)NCC(O)COc1cccc2c1CC(O)C(O)C2 (configuration not stated) [NADOLOL]	> 2	> 2	–	–
NCCCNCCCCNCCCN [SPERMINE]	–	–	< 2	< 2
COc1ccc2[nH]c3c(c2c1)CCNC3	< 2	< 2	–	–
OC(c1ccccc1)(c1ccccc1)C12CC[N+](CCOCc3ccccc3)(CC1)CC2	< 2	> 2	–	–
CC[N+](C)(CC)CCOC(=O)C(O)(c1ccccc1)C1CCCCC1 (configuration not stated) [OXYPHENONIUM]	> 2	> 2	–	–
CC[N+](C)(C)c1cccc(O)c1 [EDROPHONIUM]	> 2	> 2	–	–
CNCCc1ccc(O)c(O)c1 [DEOXIEPINEPHRINE]	> 2	> 2	–	–
C[N+](C)(C)C[C@H](O)CC(=O)[O-] [LEVOCARNITINE]	< 2	< 2	–	–
CC(C)(C)NCC(O)c1cc(O)cc(O)c1 (configuration not stated) [TERBUTALINE]	> 2	> 2	–	–
NCCc1ccccc1 [PHENETHYLAMINE]	< 2	< 2	–	–
C[C@@H]1Cc2c(Cl)cc(C(=O)N[C@@H](Cc3ccccc3)C(=O)O)c(O)c2C(=O)O1 [3R14S-OCHRATOXIN A]	< 2	> 2	–	–
NCCCCN [PUTRESCINE]	–	–	< 2	< 2
CCCC[N+]1(C)[C@@H]2C[C@@H](OC(=O)[C@H](CO)c3ccccc3)C[C@H]1[C@@H]1O[C@@H]12 (some centres not stated) [BUTYLSCOPOLAMINE]	< 2	> 2	–	–
C[C@@H]1O[C@@]2(CS1)CN1CCC2CC1	< 2	< 2	–	–
Nc1ccncc1N [AMIFAMPRIDINE]	> 2	> 2	–	–
[H]/N=C(\N/C(=N/[H])Nc1ccc(Cl)cc1)NC(C)C [PROGUANIL]	> 2	> 2	–	–
C[C@H](NCCc1ccc(O)cc1)[C@H](O)c1ccc(O)cc1	–	–	> 2	> 2
CN/C(=N/CCSCc1nc[nH]c1C)NC#N [CIMETIDINE]	–	–	> 2	> 2
CC(C)(C(=O)O)c1ccc(C(O)CCCN2CCC(C(O)(c3ccccc3)c3ccccc3)CC2)cc1 (configuration not stated) [FEXOFENADINE]	< 2	< 2	–	–

Compound	uptake ratio at 1 min, 2.5 µM [1, 3]	uptake ratio at 1 min, 2.5 µM ([2]; HEK293 cells expressing MATE1)	uptake ratio at 1 min, 2.5 µM ([1]; hek293)	uptake ratio at 1 min, 2.5 µM ([2]; hek293)
CN(C)CCc1c[nH]c2ccc(Cn3cncn3)cc12 [RIZATRIPTAN]	> 2	> 2	–	–
Cc1ncc(C[n+]2cccc(CCO)c2C)c(N)n1	> 2	> 2	–	–
C[N+]12CCC(CC1)C(OC(=O)C(O)(c1ccccc1)c1ccccc1)C2 (configuration not stated)	< 2	> 2	–	–
CNC(C)Cc1ccc2c(c1)OCO2 (configuration not stated) [MIDOMAFETAMINE]	< 2	< 2	–	–
CNC(=O)c1cccnc1 [NICOTINYL METHYLAMIDE]	> 2	> 2	–	–
C[N+]1(CCC(C(N)=O)(c2ccccc2)c2ccccc2)CCCCC1	< 2	> 2	–	–
CCN(CC)C(=O)Nc1ccc(OCC(O)CNC(C)(C)C)c(C(C)=O)c1 (configuration not stated) [CELIPROLOL]	> 2	> 2	–	–
CC(C)(C)NCC(O)c1ccc(O)c(O)c1 (configuration not stated) [COLTEROL]	> 2	> 2	–	–
CCN(CC)CCNC(=O)c1ccc(NS(C)(=O)=O)cc1 [SEMATILIDE]	> 2	> 2	–	–
Nc1ncn([C@H]2C[C@H](O)[C@@H](CO)O2)c(=O)n1 [DECITABINE]	< 2	< 2	–	–
N=C(N)NCCC[C@H](NC(=O)c1ccc2ccccc2c1O)C(=O)N1CCC[C@H]1C(N)=O	< 2	> 2	–	–
C[N+]1(C)CCCC(OC(=O)C(O)(c2ccccc2)c2ccccc2)C1 (configuration not stated) [MEPENZOLATE BROMIDE]	> 2	> 2	–	–
CCC(NC(C)C)C(O)c1ccc(O)c(O)c1 (configuration not stated) [ISOETHARINE]	> 2	> 2	–	–
Nc1nc(CC(=O)Nc2ccc(CCNC[C@H](O)c3ccccc3)cc2)cs1 [MIRABEGRON]	> 2	> 2	–	–
CNC(=C[N+](=O)[O-])NCCSCc1ccc(CN(C)C)o1 [RANITIDINE]	–	–	> 2	> 2
COC(=O)[C@@H]1[C@H]2CC[C@@H](C[C@@H]1O)N2C	< 2	< 2	–	–
N[C@@H](CC(=O)N1CCn2c(nnc2C(F)(F)F)C1)Cc1cc(F)c(F)cc1F [SITAGLIPTIN]	> 2	> 2	–	–
COC(=O)CCc1ccc(OCC(O)CNC(C)C)cc1 (configuration not stated) [ESMOLOL]	< 2	< 2	–	–
CNCCc1ccccc1	< 2	< 2	–	–
CC(C)[N+](C)(CCOC(=O)C1c2ccccc2Oc2ccccc21)C(C)C [PROPANTHELINE]	> 2	> 2	–	–
Oc1ccc(CC2NCCc3cc(O)c(O)cc32)cc1 (configuration not stated) [HIGENAMINE]	> 2	> 2	–	–

Compound	uptake ratio at 1 min, 2.5 µM [1, 3]	uptake ratio at 1 min, 2.5 µM ([2]; HEK293 cells expressing MATE1)	uptake ratio at 1 min, 2.5 µM ([1]; hek293)	uptake ratio at 1 min, 2.5 µM ([2]; hek293)
CC1(C)N=C(N)N=C(N)N1c1ccc(Cl)cc1 [CYCLOGUANIL]	> 2	> 2	–	–
Cn1nnc2c(C(N)=O)ncn2c1=O [TEMOZOLOMIDE]	< 2	< 2	–	–
CC[C@@H](C(N)=O)N1CCCC1=O	< 2	< 2	–	–
Nc1ccn([C@@H]2O[C@H](CO)[C@@H](O)C2(F)F)c(=O)n1 [GEMCITABINE]	< 2	< 2	–	–
COc1ccc2[nH]cc(C[C@H](N)C(=O)O)c2c1	< 2	< 2	–	–
O=c1ncccn1[C@@H]1O[C@H](CO)[C@@H](O)[C@H]1O [ZEBULARINE]	< 2	< 2	–	–
CNCc1ccc(CSCCN/C(=C/[N+](=O)[O-])NC)o1	> 2	> 2	–	–
CCC1(c2ccccc2)C(=O)NC(=O)NC1=O [PHENOBARBITAL]	< 2	< 2	–	–
CNCCc1ccc(O)cc1	< 2	> 2	–	–
CC(C)NCC(O)c1ccc(NS(C)(=O)=O)cc1 (configuration not stated) [SOTALOL]	< 2	> 2	–	–
NCCCCCN	< 2	< 2	–	–
CC(C)NCC(O)c1cc(O)cc(O)c1 (configuration not stated) [METAPROTERENOL]	> 2	> 2	–	–
CCCCNC(=N)NC(=N)N [BUFORMIN]	–	–	> 2	> 2
O=c1cccc2n1C[C@@H]1CNC[C@H]2C1 [CYTISINICLINE]	–	–	< 2	> 2
NCCc1cccc(O)c1	< 2	> 2	–	–
Cc1cc(O)cc(C)c1OCC(C)N (configuration not stated)	< 2	< 2	–	–
CCCCCCCN(CC)CCCC(O)c1ccc(NS(C)(=O)=O)cc1 (configuration not stated) [IBUTILIDE]	< 2	< 2	–	–
CCCC(=O)Nc1ccc(OCC(O)CNC(C)C)c(C(C)=O)c1 (configuration not stated) [ACEBUTOLOL]	–	–	> 2	> 2
OCCN1CCN(CCCN2c3ccccc3Sc3ccc(C(F)(F)F)cc32)CC1 [FLUPHENAZINE]	< 2	< 2	–	–

Reference: ChEMBL document CHEMBL6182944, “Substrate Specificity of the Organic Cation Transporters MATE1 and MATE2K and Functional Overlap with OCT1 and OCT2” (J Med Chem, 2025)
